Measurements reported in ChEMBL document CHEMBL1201862, “PubChem BioAssay data set” (2004).
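Five compound concentrations were applied to cells in 96-well plates for 48 hours; endpoints were derived by simple linear interpolation of the resulting dose-response curve. GI50 is the concentration that inhibits growth by half.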 Active and inactive are the calls of the source. Cut-off read from the data, not from the text of the source: active = GI50 up to about 1.1 µM and inactive = higher. Starred links: 1 amine or outer side, 2 acyl side, 3 side chain; linkers in the order of their positions; H or OH if unused. Non-standard residues stand in square brackets, D forms with d. Residues, ends and D or L forms follow the SMILES beside them. *: point of attachment. X34 = CC(=O)N(C)SCC(N[*:1])C(=O)[*:2]; Cbz = O=C(OCc1ccccc1)*; Bn = c1ccc(C*)cc1; For = O=C*

Experiments:
Experiment in all cases: NCI-60 cell line screen, 48 h
HCT-116 = tested on: HCT-116
MOLT-4 = tested on: MOLT-4
NCI-H23 = tested on: NCI-H23
ACHN = tested on: ACHN
OVCAR-5 = tested on: OVCAR-5
HCC 2998 = tested on: HCC 2998
M14 = tested on: M14
SK-MEL-28 = tested on: SK-MEL-28
LOX IMVI = tested on: LOX IMVI
IGROV-1 = tested on: IGROV-1
NCI/ADR-RES = tested on: NCI/ADR-RES
CCRF-CEM = tested on: CCRF-CEM
MDA-MB-435 = tested on: MDA-MB-435
MDA-MB-231 = tested on: MDA-MB-231
EKVX = tested on: EKVX
U-251 = tested on: U-251
TK-10 = tested on: TK-10
PC-3 = tested on: PC-3
SK-MEL-5 = tested on: SK-MEL-5
SF-295 = tested on: SF-295

Measured: GI50

CCCCCCCCCCCCCC(=O)N(CCCCCCCCC)CC(O)C(O)C(OC1OC(CO)C(O)C(O)C1O)C(O)CO (stereo not given)
inactive: HCT-116 17.4 µM | MOLT-4 24.4 µM | NCI-H23 19.7 µM | ACHN 15.8 µM | OVCAR-5 32.9 µM | HCC 2998 18.5 µM | M14 20.1 µM | SK-MEL-28 18.1 µM | LOX IMVI 19.5 µM | IGROV-1 20.2 µM | NCI/ADR-RES 18.8 µM | CCRF-CEM 26.2 µM | MDA-MB-435 19.8 µM | MDA-MB-231 20.7 µM | EKVX 18 µM | U-251 22.5 µM | TK-10 18.6 µM | PC-3 21.8 µM | SK-MEL-5 19.5 µM | SF-295 20.7 µM

CCN(CC)C(=S)Nc1ccc(-c2cc3ccc(O)cc3oc2=O)cc1
inactive: HCT-116 26.1 µM | MOLT-4 13.4 µM | NCI-H23 29.7 µM | ACHN 25.9 µM | OVCAR-5 26.2 µM | HCC 2998 20.2 µM | M14 27.2 µM | SK-MEL-28 25.9 µM | LOX IMVI 25.9 µM | IGROV-1 30.6 µM | NCI/ADR-RES 20.6 µM | CCRF-CEM 16.4 µM | MDA-MB-435 28.6 µM | MDA-MB-231 39.4 µM | EKVX 32 µM | U-251 11.8 µM | TK-10 39 µM | PC-3 23.4 µM | SK-MEL-5 22.3 µM | SF-295 36.5 µM

CC(=O)N(C)SCC(NC(=O)C(Cc1ccccc1)NC(=O)OCc1ccccc1)C(=O)NC(Cc1ccccc1)C(=O)NC(Cc1cn(C=O)c2ccccc12)C(=O)NC(CCCCNC(=O)OCc1ccccc1)C(=O)NC(C(=O)NC(CSN(C)C(C)=O)C(=O)NC(C(N)=O)C(C)OCc1ccccc1)C(C)OCc1ccccc1 (stereo not given) (Cbz-F[X34]FW(For)K(Cbz)T(Bn)[X34]T(Bn)-NH2; configuration not given here)
inactive: HCT-116 61.5 µM | MOLT-4 > 100 µM | NCI-H23 32 µM | ACHN > 100 µM | OVCAR-5 > 100 µM | HCC 2998 > 100 µM | M14 46.9 µM | SK-MEL-28 > 100 µM | LOX IMVI > 100 µM | IGROV-1 68.9 µM | NCI/ADR-RES > 100 µM | CCRF-CEM > 100 µM | MDA-MB-435 > 100 µM | MDA-MB-231 14.7 µM | EKVX > 100 µM | U-251 32.2 µM | TK-10 20.6 µM | PC-3 > 100 µM | SK-MEL-5 > 100 µM | SF-295 16.1 µM

CC[C@H](CC[C@@H](C)[C@H]1CC[C@H]2[C@@H]3CC=C4C[C@@H](O)CC[C@]4(C)[C@H]3CC[C@]12C)C(C)C [BETA-SITOSTEROL]
inactive: HCT-116 > 100 µM | MOLT-4 > 100 µM | NCI-H23 > 100 µM | ACHN > 100 µM | OVCAR-5 > 100 µM | HCC 2998 > 100 µM | M14 > 100 µM | SK-MEL-28 > 100 µM | LOX IMVI > 100 µM | IGROV-1 > 100 µM | NCI/ADR-RES > 100 µM | CCRF-CEM > 100 µM | MDA-MB-435 > 100 µM | MDA-MB-231 > 100 µM | EKVX > 100 µM | U-251 > 100 µM | TK-10 > 100 µM | PC-3 > 100 µM | SK-MEL-5 > 100 µM | SF-295 > 100 µM
